Experimental data published in PubChem BioAssay (NCI).
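Cells were grown in 96-well plates and exposed to each compound for 48 hours at five concentrations; endpoints were interpolated linearly between bracketing concentrations, or set to the highest concentration if not reached. TGI: concentration producing complete growth inhibition.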

Columns and labels:
Assay in all cases: NCI anticancer screen, dose series, 48 h
[1] = test system: OVCAR-5 ovarian
[2] = test system: A549 NSCLC
[3] = test system: RXF 393 renal
[4] = test system: NCI-H23 lung
[5] = test system: MDA-MB-435
[6] = test system: T-47D breast
[7] = test system: HCT-15 colon
[8] = test system: HT29 colon
[9] = test system: SK-MEL-2 melanoma
[10] = test system: HL-60(TB) leukemia
[11] = test system: SNB-19 CNS
[12] = test system: SK-MEL-28 melanoma
[13] = test system: SR leukemia
[14] = test system: MOLT-4 leukemia
[15] = test system: ACHN renal
[16] = test system: TK-10 renal
[17] = test system: HOP-62 NSCLC
[18] = test system: OVCAR-4 ovarian
[19] = test system: HOP-92 NSCLC
[20] = test system: OVCAR-3 ovarian
[21] = test system: DU-145 prostate
[22] = test system: NCI-H226 lung
[23] = test system: SF-268 CNS
[24] = test system: A498 renal
[25] = test system: RPMI-8226 leukemia
[26] = test system: HCT-116 colon
[27] = test system: K-562 leukemia
[28] = test system: PC-3 prostate
[29] = test system: U251 CNS
[30] = test system: MALME-3M melanoma
[31] = test system: SK-MEL-5 melanoma
[32] = test system: HCC-2998 colon
[33] = test system: CCRF-CEM leukemia
[34] = test system: MDA-MB-231 breast
[35] = test system: SN12C renal
[36] = test system: OVCAR-8 ovarian
[37] = test system: UO-31 renal
[38] = test system: COLO 205 colon
[39] = test system: M14 melanoma
[40] = test system: EKVX NSCLC
[41] = test system: MDA-N
[42] = test system: UACC-62 melanoma
[43] = test system: SF-539 CNS
[44] = test system: SW-620 colon
[45] = test system: NCI-H522 lung
[46] = test system: 786-0 renal
[47] = test system: MCF7 breast
[48] = test system: KM12 colon
[49] = test system: HS 578T breast
[50] = test system: UACC-257 melanoma
[51] = test system: CAKI-1 renal
[52] = test system: SK-OV-3 ovarian
[53] = test system: NCI/ADR-RES ovarian
[54] = test system: SNB-75 CNS
[55] = test system: NCI-H460 lung
[56] = test system: SF-295 CNS
[57] = test system: IGROV1 ovarian
[58] = test system: LOX IMVI melanoma

## CCOC(=O)c1c(SCCCN2CCCCC2)n(-c2ccccc2)c(=S)n(-c2ccccc2)c1=O
[1]
  TGI: 34.2 µM
[2]
  TGI: 33.9 µM
[3]
  TGI: 32.2 µM
[4]
  TGI: 33.9 µM
[5]
  TGI: 29.7 µM
[6]
  TGI: 32.6 µM
[7]
  TGI: 33.2 µM
[8]
  TGI: 37.5 µM
[9]
  TGI: 30.9 µM
[10]
  TGI: 7.69 µM
[11]
  TGI: 31.4 µM
[12]
  TGI: 31.9 µM
[13]
  TGI: 67 µM
[14]
  TGI: 35 µM
[15]
  TGI: 44.7 µM
[16]
  TGI: 34.8 µM
[17]
  TGI: > 100 µM
[18]
  TGI: 31.5 µM
[19]
  TGI: 29.1 µM
[20]
  TGI: 30.4 µM
[21]
  TGI: 29.9 µM
[22]
  TGI: 34 µM
[23]
  TGI: > 100 µM
[24]
  TGI: 35.6 µM
[25]
  TGI: > 100 µM
[26]
  TGI: 24.8 µM
[27]
  TGI: 41.3 µM
[28]
  TGI: 30 µM
[29]
  TGI: 30.5 µM
[30]
  TGI: 29.8 µM
[31]
  TGI: 30.1 µM
[32]
  TGI: 31.1 µM
[33]
  TGI: 49.3 µM
[34]
  TGI: 46.1 µM
[35]
  TGI: 29.7 µM
[36]
  TGI: 33.6 µM
[37]
  TGI: 29.1 µM
[38]
  TGI: 32 µM
[39]
  TGI: 31.9 µM
[40]
  TGI: 91.8 µM
[41]
  TGI: 28.5 µM
[42]
  TGI: 25.2 µM
[43]
  TGI: 27.9 µM
[44]
  TGI: 35.4 µM
[45]
  TGI: 34.9 µM
[46]
  TGI: 13.5 µM
[47]
  TGI: 37.6 µM
[48]
  TGI: 34 µM
[49]
  TGI: 46.5 µM

## COC(=O)CNC(=O)CCSc1nnc(COc2ccc(Cl)cc2)n1-c1ccccc1
[1]
  TGI: > 100 µM
[50]
  TGI: 38.8 µM
[51]
  TGI: 26.7 µM
[2]
  TGI: > 100 µM
[3]
  TGI: 67.5 µM
[4]
  TGI: > 100 µM
[5]
  TGI: 60.4 µM
[6]
  TGI: > 100 µM
[7]
  TGI: > 100 µM
[8]
  TGI: > 100 µM
[9]
  TGI: 48.8 µM
[10]
  TGI: > 100 µM
[52]
  TGI: > 100 µM
[11]
  TGI: > 100 µM
[12]
  TGI: 56.9 µM
[14]
  TGI: > 100 µM
[15]
  TGI: > 100 µM
[16]
  TGI: 35 µM
[17]
  TGI: > 100 µM
[18]
  TGI: > 100 µM
[19]
  TGI: > 100 µM
[20]
  TGI: > 100 µM
[21]
  TGI: 51.5 µM
[22]
  TGI: 84.6 µM
[23]
  TGI: 48.5 µM
[24]
  TGI: > 100 µM
[26]
  TGI: > 100 µM
[27]
  TGI: > 100 µM
[28]
  TGI: > 100 µM
[53]
  TGI: > 100 µM
[29]
  TGI: > 100 µM
[54]
  TGI: 40.7 µM
[30]
  TGI: 58.3 µM
[32]
  TGI: > 100 µM
[33]
  TGI: > 100 µM
[55]
  TGI: > 100 µM
[34]
  TGI: 49.1 µM
[35]
  TGI: 45.9 µM
[56]
  TGI: > 100 µM
[36]
  TGI: > 100 µM
[37]
  TGI: > 100 µM
[38]
  TGI: > 100 µM
[39]
  TGI: 65.5 µM
[40]
  TGI: > 100 µM
[41]
  TGI: 37.6 µM
[42]
  TGI: 44 µM
[43]
  TGI: > 100 µM
[44]
  TGI: > 100 µM
[45]
  TGI: 33.6 µM
[46]
  TGI: 42.6 µM
[47]
  TGI: > 100 µM
[57]
  TGI: 98.7 µM
[48]
  TGI: > 100 µM
[58]
  TGI: > 100 µM

## COc1ccc2cc(C(=O)NCCCNC(=O)c3ccc4c(OC)c(OC)ccc4c3)ccc2c1OC
[1]
  TGI: > 100 µM
[50]
  TGI: > 100 µM
[51]
  TGI: > 100 µM
[2]
  TGI: > 100 µM
[3]
  TGI: > 100 µM
[4]
  TGI: > 100 µM
[5]
  TGI: > 100 µM
[6]
  TGI: > 100 µM
[7]
  TGI: > 100 µM
[8]
  TGI: > 100 µM
[9]
  TGI: > 100 µM
[52]
  TGI: > 100 µM
[11]
  TGI: > 100 µM
[12]
  TGI: > 100 µM
[13]
  TGI: > 100 µM
[14]
  TGI: > 100 µM
[15]
  TGI: > 100 µM
[17]
  TGI: > 100 µM
[18]
  TGI: > 100 µM
[20]
  TGI: > 100 µM
[21]
  TGI: > 100 µM
[23]
  TGI: > 100 µM
[24]
  TGI: > 100 µM
[25]
  TGI: > 100 µM
[26]
  TGI: > 100 µM
[27]
  TGI: > 100 µM
[28]
  TGI: > 100 µM
[53]
  TGI: > 100 µM
[29]
  TGI: > 100 µM
[31]
  TGI: > 100 µM
[32]
  TGI: > 100 µM
[33]
  TGI: > 100 µM
[55]
  TGI: > 100 µM
[34]
  TGI: > 100 µM
[35]
  TGI: > 100 µM
[56]
  TGI: > 100 µM
[37]
  TGI: > 100 µM
[38]
  TGI: > 100 µM
[40]
  TGI: > 100 µM
[41]
  TGI: > 100 µM
[42]
  TGI: > 100 µM
[44]
  TGI: > 100 µM
[45]
  TGI: > 100 µM
[46]
  TGI: > 100 µM
[47]
  TGI: > 100 µM
[48]
  TGI: > 100 µM
[58]
  TGI: > 100 µM
